Reference: patent publication US6797699B1, “Neuroprotective agents” (University of Southampton, priority 1997, dated 2004)
Entries after “also recorded” stand apart in the source; their conditions may differ. Marks after values point to notes of the source that are not given here.

Legend:
[1] = tested on: CA1 pyramidal cell layer of organotypic hippocampal slice cultures; test: Hypoxic neuronal damage in organotypic hippocampal slice cultures (propidium iodide fluorescence); type: cell-based, Wistar rat
Description: Hypoxic neuronal damage was studied using organotypic hippocampal slice cultures [Pringle A. K. et al. (1996 Stroke 27 2124-2130)].
Cultures were prepared according to the method of Stoppini et al (1991 J. Neurosci. Meth. 37 173-182) from 8-10 day old Wistar rat pups (Bioresources Unit, University of Southampton). Cultures were maintained in vitro for 14 days (37° C., 5% CO2) during which the medium (50% minimum essential medium (MEM), 25% Hank's balanced salt solution (HBSS), 25% heat-inactivated horse serum, supplemented with 1 mM glutamine, 5 mg/ml glucose and 1.5% fungizone) was changed every 3 days. Hypoxia was induced by replacing culture medium with serum-free (SF) medium (75% MEM, 25% HBSS, 1 mM glutamine, 5 mg/ml glucose, 1.5% fungizone) saturated with 95% N2/5% CO2 (and thus oxygen-free), and placing cultures in an air-tight chamber in which the atmosphere was also saturated with N2/CO2. After 180 minutes hypoxia, cultures were replated in normoxic SF medium and replaced in the incubator for 24 hours. Compounds were added to cultures either pre-, during and post-hypoxia (herein abbreviated to “pdp”) or just in the post-hypoxic recovery period (“post”) [Johnson, T. D. (1996 Trends Pharmacol. Sci. 22-27)]. Cell damage was evaluated using the fluorescent exclusion dye propidium iodide (PI, 5 μg/ml) which is normally excluded from healthy cells, but enters cells with damaged plasma membranes and becomes highly fluorescent when bound to DNA. Neuronal cell damage was quantified using the “NIH Image 1.55” software (written by Wayne Rasband at the U.S. National Institutes for Health and available from the internet by anonymous ftp from zippy.nimh.nih.gov). Briefly, the area of the CA1, CA3 and dentate gyrus (DG) cell layers was measured from a transmission image. 24 hours after the commencement of hypoxia, a fluorescence image was captured using a standard Leica inverted fluorescence microscope fitted with a rhodamine filter set. The area of PI fluorescence above background in the neuronal cell layers was determined using the density slice function of Image. Cellular damage is expressed as the percentage area of the cell body layers in which PI fluorescence was detectable. After imaging, cultures were fixed overnight in 4% paraformaldehyde and stained with thionin.
Data are expressed as the mean±sem. Data from the non-drug groups was pooled before analysis. Statistical significance was determined using one-way analysis of variance (ANOVA) followed by post-hoc non-paired Student's t-tests. As only cells within the CA1 region were susceptible to hypoxia-induced damage, all of the pharmacological data was calculated for this region alone.
Table 1 represents the quantification of the percentage area of the CA1 pyramidal cell layer in which PI fluorescence was detectable 24 hours after 3 hours of hypoxia (% Damage CA1). Data from all of the cultures exposed to hypoxia alone were pooled (control hypoxia). The percentage neuroprotection was calculated as the (((% damage control hypoxia-% damage drug treated)/% damage control hypoxia) 100). Data are expressed as the mean±sem, n=number of cultures, *p<0.05, **<0.01, ***p<0.001 vs hypoxia control.

mice = settings: FTX isolated from funnel-web spider toxin; Proc. Natl. Acad. Sci. USA 86, 1689-1693 (1989); cited from earlier work
[2] = Table 1, 300 μM added post-hypoxia, 3 h hypoxia, PI at 24 h, control hypoxia 35.6 ± 1.43, mean±sem
[3] = Table 1, 300 μM added post-hypoxia, vs control hypoxia

| Molecule | neuroprotective effect / reduction of PI fluorescence in CA1 (in words) ([1]; 300 μM added post-hypoxia) | % Damage CA1 [1, 2] | % Protection [1, 3] | further results |
| --- | --- | --- | --- | --- |
| NCCCCNCCCNC(=O)C(N)CCCCN [B, N^1-L-Lysinylspermidine] | also protective, although to a lesser extent | 27.0 ± 3.7* % | 24.2% | neuroprotective effect / reduction of PI fluorescence in CA1 (in words) ([1]; 300 μM added post-hypoxia, listed as L-LysSp): small but significant reduction in PI fluorescence; also recorded: active |
| NCCCCNCCCNC(=O)C(N)CCCN [C, N^1-L-Ornithylspermidine] | also protective, although to a lesser extent | 30.6 ± 3.8% | 14.0% | neuroprotective effect / reduction of PI fluorescence in CA1 (in words) ([1]; 300 μM added post-hypoxia, listed as L-OrnSp): less of a significant reduction in damage; also recorded: active |
| NCCCCNCCCNC(=O)C(N)CCCNC(N)=O (stereo not drawn) [Compound I] | significant protective effect |  |  | % Protection ([1]; Table 6, 300 μM post): 53%; % Damage CA1 ([1]; Table 6, 300 μM post, hypoxia control 23.2 ± 4.9): 10.9 ± 5.7* % |
| NC(N)=NCCCC(N)C(=O)O [D-Arg, reference compound] |  | 32.7 ± 7.0% | 8.1% |  |
| N=C(N)NCCCC(N)C(=O)NCCCNCCCN (stereo not drawn) [FTX] |  |  |  | toxicity to mice (in words) (mice): toxic to mice in extremely small doses |
| N=C(N)NCCC[C@H](N)C(=O)O [L-Arg, L-arginine, reference compound] | no efficacy was detected | 38.5 ± 4.0% | 0% | neuroprotective effect / reduction of PI fluorescence in CA1 (in words) ([1]; 300 μM added post-hypoxia, listed as L-arginine): Neither spermidine nor L-arginine individually produced a reduction in damage |
| NCCCCNCCCN [Spermidine, spermidine, reference compound] | no neuroprotective effects; also recorded: no efficacy was detected | 34.2 ± 5.4% | 3.9% |  |
| N1-D-Arginylspermidine [Compound Z^1] |  | 32.6 ± 4.1% | 8.4% | neuroprotective effect / reduction of PI fluorescence in CA1 (in words) ([1]; 300 μM added post-hypoxia, listed as D-ArgSp): did not result in any observable reduction of PI fluorescence; also recorded: inactive |
| N^1-D-Lysinylspermidine [Compound Z^2] |  | 36.3 ± 3.5% | 0% | neuroprotective effect / reduction of PI fluorescence in CA1 (in words) ([1]; 300 μM added post-hypoxia, listed as D-LysSp): did not result in any observable reduction of PI fluorescence; also recorded: inactive |
| N^1-D-Ornithylspermidine [Compound Z^3] | did not result in any observable reduction of PI fluorescence | 36.71 ± 3.2% | 0% |  |
